# Measurements from BindingDB's records for patent US10889592 (VALO EARLY DISCOVERY, INC., 2021).
# Legend:
# [1] = target: T1, Ubiquitin carboxyl-terminal hydrolase 25 (Homo sapiens, UniProt Q9UHP3); experiment: Biochemical Assay
# T1 sequence (Q9UHP3 whole entry): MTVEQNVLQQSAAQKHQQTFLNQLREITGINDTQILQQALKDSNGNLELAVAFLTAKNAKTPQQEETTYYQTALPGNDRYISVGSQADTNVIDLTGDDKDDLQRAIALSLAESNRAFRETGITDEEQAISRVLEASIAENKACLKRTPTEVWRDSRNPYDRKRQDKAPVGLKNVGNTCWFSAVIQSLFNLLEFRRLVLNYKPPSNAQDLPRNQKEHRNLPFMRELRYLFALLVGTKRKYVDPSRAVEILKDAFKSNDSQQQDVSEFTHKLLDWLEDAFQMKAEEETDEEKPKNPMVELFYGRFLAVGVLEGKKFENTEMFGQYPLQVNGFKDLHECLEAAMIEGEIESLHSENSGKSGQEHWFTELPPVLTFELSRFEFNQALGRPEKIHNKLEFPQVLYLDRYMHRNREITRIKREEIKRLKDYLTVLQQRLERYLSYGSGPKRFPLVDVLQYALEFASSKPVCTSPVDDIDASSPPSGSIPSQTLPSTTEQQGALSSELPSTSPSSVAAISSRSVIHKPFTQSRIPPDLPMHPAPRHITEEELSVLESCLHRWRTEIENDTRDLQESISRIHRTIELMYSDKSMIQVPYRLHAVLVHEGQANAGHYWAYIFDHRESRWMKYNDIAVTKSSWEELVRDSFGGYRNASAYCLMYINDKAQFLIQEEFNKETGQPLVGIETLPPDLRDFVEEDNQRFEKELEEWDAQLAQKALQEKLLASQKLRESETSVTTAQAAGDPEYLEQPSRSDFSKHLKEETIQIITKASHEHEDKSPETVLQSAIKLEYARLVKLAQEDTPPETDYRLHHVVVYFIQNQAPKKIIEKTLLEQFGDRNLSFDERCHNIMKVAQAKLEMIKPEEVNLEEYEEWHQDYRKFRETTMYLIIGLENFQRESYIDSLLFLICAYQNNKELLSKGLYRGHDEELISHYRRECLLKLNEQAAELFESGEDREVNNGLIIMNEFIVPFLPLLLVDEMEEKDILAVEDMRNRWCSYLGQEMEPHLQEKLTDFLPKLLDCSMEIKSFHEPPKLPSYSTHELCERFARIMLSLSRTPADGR
# Experimental: USP25: The assay was performed in a final volume of 9 μL in assay buffer containing 20 mM Tris-HCl (pH 8.0, (1M Tris-HCl, pH 8.0 solution; Corning 46-031-CM)), 3 mM BME (2-Mercaptoethanol; Sigma 63689-25ML-F), 0.03% BGG (0.22 μM filtered. Sigma, G7516-25G), and 0.01% Triton X-100 (Sigma, T9284-10L). Nanoliter quantities of 10-point, 3-fold serial dilution in DMSO was pre-dispensed into 1536 assay plates (Corning, #3724BC) for a final test concentration of 25 μM to 1.3 nM, top to lowest dose, respectively. Enzyme USP25, construct USP25-His6, (Boston Biochem E-546). Concentration and incubation times were optimized for the maximal signal-to-background while maintaining initial velocity conditions at a fixed substrate concentration. The final concentration of the enzyme in the assay was 75 pM. Final substrate (Ub-Rh110 Ubiquitin-Rhodamine 110, R&D Systems # U-555) concentration was 25 nM with [Ub-Rh110]<<Km. 3 μL of 2× enzyme was added to assay plates (pre-stamped with compound) preincubated with […] for 30 minutes and then 3 μL of 2×Ub-Rh110 was added to assay plates. […] Fluorescence was read on the Envision (Excitation at 485 nm and Emission at 535 nm; Perkin Elmer) or on the PheraSTAR (Excitation at 485 nm and Emission at 535 nm; BMG Labtech).
# [2] = target: T2, Ubiquitin carboxyl-terminal hydrolase 28 (Homo sapiens, UniProt Q96RU2); experiment: Biochemical Assay
# T2 sequence (Q96RU2 whole entry): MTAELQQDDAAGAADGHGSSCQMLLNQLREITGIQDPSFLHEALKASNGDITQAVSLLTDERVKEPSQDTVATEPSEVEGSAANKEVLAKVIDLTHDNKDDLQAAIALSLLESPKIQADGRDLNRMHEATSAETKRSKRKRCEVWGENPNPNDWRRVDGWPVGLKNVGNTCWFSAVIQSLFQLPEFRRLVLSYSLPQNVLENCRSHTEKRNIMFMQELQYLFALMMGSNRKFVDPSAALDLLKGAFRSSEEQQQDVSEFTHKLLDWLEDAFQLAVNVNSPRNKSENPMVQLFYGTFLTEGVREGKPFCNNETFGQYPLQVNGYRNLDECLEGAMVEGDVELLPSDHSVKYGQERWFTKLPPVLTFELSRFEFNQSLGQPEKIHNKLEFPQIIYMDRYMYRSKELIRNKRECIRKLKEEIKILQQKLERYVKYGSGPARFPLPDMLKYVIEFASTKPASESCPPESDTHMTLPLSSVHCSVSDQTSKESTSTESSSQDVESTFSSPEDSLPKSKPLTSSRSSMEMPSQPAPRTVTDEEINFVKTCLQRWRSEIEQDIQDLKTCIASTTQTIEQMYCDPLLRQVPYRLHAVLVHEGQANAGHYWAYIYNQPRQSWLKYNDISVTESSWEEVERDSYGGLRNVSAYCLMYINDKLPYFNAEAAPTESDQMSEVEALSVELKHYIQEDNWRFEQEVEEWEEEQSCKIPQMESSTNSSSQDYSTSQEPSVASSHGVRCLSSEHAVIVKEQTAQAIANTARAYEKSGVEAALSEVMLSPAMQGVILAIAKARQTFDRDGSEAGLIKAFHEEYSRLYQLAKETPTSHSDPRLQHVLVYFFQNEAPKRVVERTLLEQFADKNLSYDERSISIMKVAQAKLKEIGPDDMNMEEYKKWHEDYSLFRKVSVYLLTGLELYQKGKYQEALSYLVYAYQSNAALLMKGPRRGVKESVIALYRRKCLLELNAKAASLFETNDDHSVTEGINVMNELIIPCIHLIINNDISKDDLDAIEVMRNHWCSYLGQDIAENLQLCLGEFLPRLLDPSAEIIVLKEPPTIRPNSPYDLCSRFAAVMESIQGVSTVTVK
# Experimental: USP28: Each assay was performed in a final volume of 20 μL in assay buffer containing 20 mM Tris-HCl (pH 8.0, (1M Tris-HCl, pH 8.0 solution; Corning 46-031-CM)), 2 mM CaCl2) (1M Calcium Chloride solution; Sigma #21114) 2 mM BME (2-Mercaptoethanol; Sigma 63689-25ML-F), 0.01% Prionex (0.22 μM filtered, Sigma # G-0411), and 0.01% Triton X-100. Stock compound solutions were stored at −20° C. as 10 mM in DMSO. Up to 1 month prior to the assay, 2 mM test compounds were pre-dispensed into assay plates (Black, low volume; Corning #3820) and frozen at −20° C. Prestamped assay plates were allowed to come to room temperature on the day of the assay. For the screen, 100 nL of 2 mM was pre-dispensed for a final screening concentration of 10 μM (DMSO(fc)=0.5%). […] Plates were incubated stacked for 90 minutes at room temperature before fluorescence was read on the Envision (Excitation at 485 nm and Emission at 535 nm; Perkin Elmer) or on the PheraSTAR (Excitation at 485 nm and Emission at 535 nm; BMG Labtech).
SMILES,IC50 [1],IC50 [2]
"Cc1cnc2c(N)c(C(=O)NCCc3ccc(N4C5CCC4CNC5)cc3F)sc2n1 [US10889592, Compound I-10]",in the range around 1100 nM,< 200 nM
"Cc1cnc2c(N)c(C(=O)NCCc3c(F)cc(N4C5CCC4CNC5)cc3F)sc2n1 [US10889592, Compound I-11]",in the range around 1100 nM,in the range around 1100 nM
